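Cultured in 96-well plates, cells were exposed to test compound for 48 hours across five concentrations. The concentration for 50% growth inhibition is given as GI50. TGI is the concentration that stops growth completely.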
Assays:
Assay in all cases: NCI tumour cell line growth inhibition, 48 h
OVCAR-3 ovarian = tested on: OVCAR-3 ovarian
HL-60(TB) leukemia = tested on: HL-60(TB) leukemia
K-562 leukemia = tested on: K-562 leukemia
OVCAR-4 ovarian = tested on: OVCAR-4 ovarian
HOP-92 NSCLC = tested on: HOP-92 NSCLC
MCF7 breast = tested on: MCF7 breast
TK-10 renal = tested on: TK-10 renal
UACC-257 melanoma = tested on: UACC-257 melanoma
RXF 393 renal = tested on: RXF 393 renal
A549 NSCLC = tested on: A549 NSCLC
U251 CNS = tested on: U251 CNS
NCI-H460 lung = tested on: NCI-H460 lung
COLO 205 colon = tested on: COLO 205 colon
SN12C renal = tested on: SN12C renal
NCI-H522 lung = tested on: NCI-H522 lung
SNB-19 CNS = tested on: SNB-19 CNS
786-0 renal = tested on: 786-0 renal
NCI-H226 lung = tested on: NCI-H226 lung
SF-295 CNS = tested on: SF-295 CNS
HCT-15 colon = tested on: HCT-15 colon
HCT-116 colon = tested on: HCT-116 colon
MALME-3M melanoma = tested on: MALME-3M melanoma
SK-MEL-28 melanoma = tested on: SK-MEL-28 melanoma
SK-OV-3 ovarian = tested on: SK-OV-3 ovarian
DU-145 prostate = tested on: DU-145 prostate
HT29 colon = tested on: HT29 colon
T-47D breast = tested on: T-47D breast
NCI-H23 lung = tested on: NCI-H23 lung
IGROV1 ovarian = tested on: IGROV1 ovarian
UO-31 renal = tested on: UO-31 renal
SNB-75 CNS = tested on: SNB-75 CNS
HCC-2998 colon = tested on: HCC-2998 colon
ACHN renal = tested on: ACHN renal
HOP-62 NSCLC = tested on: HOP-62 NSCLC
OVCAR-5 ovarian = tested on: OVCAR-5 ovarian
EKVX NSCLC = tested on: EKVX NSCLC
SR leukemia = tested on: SR leukemia
SK-MEL-2 melanoma = tested on: SK-MEL-2 melanoma
KM12 colon = tested on: KM12 colon
A498 renal = tested on: A498 renal
M14 melanoma = tested on: M14 melanoma
RPMI-8226 leukemia = tested on: RPMI-8226 leukemia
MDA-MB-468 breast = tested on: MDA-MB-468 breast
CCRF-CEM leukemia = tested on: CCRF-CEM leukemia
SF-268 CNS = tested on: SF-268 CNS
SK-MEL-5 melanoma = tested on: SK-MEL-5 melanoma
MDA-MB-435 = tested on: MDA-MB-435
MOLT-4 leukemia = tested on: MOLT-4 leukemia
SF-539 CNS = tested on: SF-539 CNS
PC-3 prostate = tested on: PC-3 prostate
NCI/ADR-RES ovarian = tested on: NCI/ADR-RES ovarian
UACC-62 melanoma = tested on: UACC-62 melanoma
OVCAR-8 ovarian = tested on: OVCAR-8 ovarian
BT-549 breast = tested on: BT-549 breast
CAKI-1 renal = tested on: CAKI-1 renal

O=C(Cn1c(/C=C/c2ccccc2)nc2ccccc2c1=O)Nc1ccc(Cl)cc1
GI50 (OVCAR-3 ovarian): 60.6 µM | TGI (OVCAR-3 ovarian): > 100 µM | GI50 (HL-60(TB) leukemia): > 100 µM | TGI (HL-60(TB) leukemia): > 100 µM | GI50 (K-562 leukemia): > 100 µM | TGI (K-562 leukemia): > 100 µM | GI50 (OVCAR-4 ovarian): 9.54 µM | TGI (OVCAR-4 ovarian): > 100 µM | GI50 (HOP-92 NSCLC): 11.2 µM | TGI (HOP-92 NSCLC): 32.2 µM | GI50 (MCF7 breast): > 100 µM | TGI (MCF7 breast): > 100 µM | GI50 (TK-10 renal): 21.4 µM | TGI (TK-10 renal): 46 µM | GI50 (UACC-257 melanoma): > 100 µM | TGI (UACC-257 melanoma): > 100 µM | GI50 (RXF 393 renal): 14.4 µM | TGI (RXF 393 renal): 35.3 µM | GI50 (A549 NSCLC): 87.2 µM | TGI (A549 NSCLC): > 100 µM | GI50 (U251 CNS): 13.9 µM | TGI (U251 CNS): > 100 µM | GI50 (NCI-H460 lung): 39.6 µM | TGI (NCI-H460 lung): > 100 µM | GI50 (COLO 205 colon): > 100 µM | TGI (COLO 205 colon): > 100 µM | GI50 (SN12C renal): 16.7 µM | TGI (SN12C renal): > 100 µM | GI50 (NCI-H522 lung): 83.4 µM | TGI (NCI-H522 lung): > 100 µM | GI50 (SNB-19 CNS): 32.7 µM | TGI (SNB-19 CNS): > 100 µM | GI50 (786-0 renal): 18.4 µM | TGI (786-0 renal): 64.8 µM | GI50 (NCI-H226 lung): 23.9 µM | TGI (NCI-H226 lung): > 100 µM | GI50 (SF-295 CNS): 26.8 µM | TGI (SF-295 CNS): > 100 µM | GI50 (HCT-15 colon): > 100 µM | TGI (HCT-15 colon): > 100 µM | GI50 (HCT-116 colon): 46 µM | TGI (HCT-116 colon): > 100 µM | GI50 (MALME-3M melanoma): 71.3 µM | TGI (MALME-3M melanoma): > 100 µM | GI50 (SK-MEL-28 melanoma): > 100 µM | TGI (SK-MEL-28 melanoma): > 100 µM | GI50 (SK-OV-3 ovarian): 24.8 µM | TGI (SK-OV-3 ovarian): 57.4 µM | GI50 (DU-145 prostate): > 100 µM | TGI (DU-145 prostate): > 100 µM | GI50 (HT29 colon): > 100 µM | TGI (HT29 colon): > 100 µM | GI50 (T-47D breast): 15.8 µM | TGI (T-47D breast): 47.5 µM | GI50 (NCI-H23 lung): 34.4 µM | TGI (NCI-H23 lung): > 100 µM | GI50 (IGROV1 ovarian): 70.1 µM | TGI (IGROV1 ovarian): > 100 µM | GI50 (UO-31 renal): 21.3 µM | TGI (UO-31 renal): 64.8 µM | GI50 (SNB-75 CNS): 19.4 µM | TGI (SNB-75 CNS): 53.8 µM | GI50 (HCC-2998 colon): > 100 µM | TGI (HCC-2998 colon): > 100 µM | GI50 (ACHN renal): 16 µM | TGI (ACHN renal): 49.6 µM | GI50 (HOP-62 NSCLC): 24.7 µM | TGI (HOP-62 NSCLC): 80.1 µM | GI50 (OVCAR-5 ovarian): > 100 µM | TGI (OVCAR-5 ovarian): > 100 µM | GI50 (EKVX NSCLC): > 100 µM | TGI (EKVX NSCLC): > 100 µM | GI50 (SR leukemia): > 100 µM | TGI (SR leukemia): > 100 µM | GI50 (SK-MEL-2 melanoma): > 100 µM | TGI (SK-MEL-2 melanoma): > 100 µM | GI50 (KM12 colon): > 100 µM | TGI (KM12 colon): > 100 µM | GI50 (A498 renal): 22.2 µM | TGI (A498 renal): 40.9 µM | GI50 (M14 melanoma): > 100 µM | TGI (M14 melanoma): > 100 µM | GI50 (RPMI-8226 leukemia): > 100 µM | TGI (RPMI-8226 leukemia): > 100 µM | GI50 (MDA-MB-468 breast): 29.2 µM | TGI (MDA-MB-468 breast): > 100 µM | GI50 (CCRF-CEM leukemia): > 100 µM | TGI (CCRF-CEM leukemia): > 100 µM | GI50 (SF-268 CNS): > 100 µM | TGI (SF-268 CNS): > 100 µM | GI50 (SK-MEL-5 melanoma): > 100 µM | TGI (SK-MEL-5 melanoma): > 100 µM | GI50 (MDA-MB-435): > 100 µM | TGI (MDA-MB-435): > 100 µM | GI50 (MOLT-4 leukemia): > 100 µM | TGI (MOLT-4 leukemia): > 100 µM | GI50 (SF-539 CNS): 30.9 µM | TGI (SF-539 CNS): > 100 µM | GI50 (PC-3 prostate): > 100 µM | TGI (PC-3 prostate): > 100 µM | GI50 (NCI/ADR-RES ovarian): 71.4 µM | TGI (NCI/ADR-RES ovarian): > 100 µM | GI50 (UACC-62 melanoma): > 100 µM | TGI (UACC-62 melanoma): > 100 µM | GI50 (OVCAR-8 ovarian): > 100 µM | TGI (OVCAR-8 ovarian): > 100 µM | GI50 (BT-549 breast): > 100 µM | TGI (BT-549 breast): > 100 µM | GI50 (CAKI-1 renal): 69 µM | TGI (CAKI-1 renal): > 100 µM

Reference: PubChem BioAssay (NCI)
